Assay: xn = mol fraction of the nth substance listed
Details: Liquid; for viscosity: Concentric cylinders viscometry; for mass density: Vibrating tube method

Cc1ccc(C)c(C)c1 [1,2,4-trimethylbenzene] + CCCCO
Details	mass density [kg/m3]	viscosity [mPa·s]
313.15 K, 100 kPa, x2 = 0	859	–
313.15 K, 100 kPa, x2 = 0.1005	853.7	–
313.15 K, 100 kPa, x2 = 0.2261	847.1	–
313.15 K, 100 kPa, x2 = 0.2999	843.2	–
313.15 K, 100 kPa, x2 = 0.3966	837.7	–
313.15 K, 100 kPa, x2 = 0.5289	829.9	–
313.15 K, 100 kPa, x2 = 0.53	–	0.882
313.15 K, 100 kPa, x2 = 0.6367	822.9	–
313.15 K, 100 kPa, x2 = 0.637	–	0.994
313.15 K, 100 kPa, x2 = 0.7249	816.8	–
313.15 K, 100 kPa, x2 = 0.7975	–	1.254
313.15 K, 100 kPa, x2 = 0.7977	811.4	–
313.15 K, 100 kPa, x2 = 0.9131	802	1.516
313.15 K, 1000 kPa, x2 = 0	859.7	–
313.15 K, 1000 kPa, x2 = 0.1005	854.4	–
313.15 K, 1000 kPa, x2 = 0.2261	847.8	–
313.15 K, 1000 kPa, x2 = 0.2999	843.9	–
313.15 K, 1000 kPa, x2 = 0.3966	838.4	–
313.15 K, 1000 kPa, x2 = 0.5289	830.6	–
313.15 K, 1000 kPa, x2 = 0.6367	823.6	–
313.15 K, 1000 kPa, x2 = 0.7249	817.5	–
313.15 K, 1000 kPa, x2 = 0.7977	812	–
313.15 K, 1000 kPa, x2 = 0.9131	802.8	–
313.15 K, 5000 kPa, x2 = 0	862.6	–
313.15 K, 5000 kPa, x2 = 0.1005	857.3	–
313.15 K, 5000 kPa, x2 = 0.2261	850.7	–
313.15 K, 5000 kPa, x2 = 0.2999	846.9	–
313.15 K, 5000 kPa, x2 = 0.3966	841.5	–
313.15 K, 5000 kPa, x2 = 0.5289	833.7	–
313.15 K, 5000 kPa, x2 = 0.6367	826.7	–
313.15 K, 5000 kPa, x2 = 0.7249	820.6	–
313.15 K, 5000 kPa, x2 = 0.7977	815.2	–
313.15 K, 5000 kPa, x2 = 0.9131	805.9	–
313.15 K, 10000 kPa, x2 = 0	866	–
313.15 K, 10000 kPa, x2 = 0.1005	860.8	–
313.15 K, 10000 kPa, x2 = 0.2261	854.3	–
313.15 K, 10000 kPa, x2 = 0.2999	850.5	–
313.15 K, 10000 kPa, x2 = 0.3966	845.1	–
313.15 K, 10000 kPa, x2 = 0.5289	837.3	–
313.15 K, 10000 kPa, x2 = 0.6367	830.4	–
313.15 K, 10000 kPa, x2 = 0.7249	824.3	–
313.15 K, 10000 kPa, x2 = 0.7977	818.9	–
313.15 K, 10000 kPa, x2 = 0.9131	809.7	–
313.15 K, 20000 kPa, x2 = 0	872.6	–
313.15 K, 20000 kPa, x2 = 0.1005	867.5	–
313.15 K, 20000 kPa, x2 = 0.2261	861	–
313.15 K, 20000 kPa, x2 = 0.2999	857.2	–
313.15 K, 20000 kPa, x2 = 0.3966	851.9	–
313.15 K, 20000 kPa, x2 = 0.5289	844.1	–
313.15 K, 20000 kPa, x2 = 0.6367	837.3	–
313.15 K, 20000 kPa, x2 = 0.7249	831.2	–
313.15 K, 20000 kPa, x2 = 0.7977	825.8	–
313.15 K, 20000 kPa, x2 = 0.9131	816.7	–
313.15 K, 30000 kPa, x2 = 0	878.7	–
313.15 K, 30000 kPa, x2 = 0.1005	873.8	–
313.15 K, 30000 kPa, x2 = 0.2261	867.4	–
313.15 K, 30000 kPa, x2 = 0.2999	863.6	–
313.15 K, 30000 kPa, x2 = 0.3966	858.3	–
313.15 K, 30000 kPa, x2 = 0.5289	850.6	–
313.15 K, 30000 kPa, x2 = 0.6367	843.7	–
313.15 K, 30000 kPa, x2 = 0.7249	837.7	–
313.15 K, 30000 kPa, x2 = 0.7977	832.4	–
313.15 K, 30000 kPa, x2 = 0.9131	823.2	–
313.15 K, 40000 kPa, x2 = 0	884.5	–
313.15 K, 40000 kPa, x2 = 0.1005	879.6	–
313.15 K, 40000 kPa, x2 = 0.2261	873.2	–
313.15 K, 40000 kPa, x2 = 0.2999	869.5	–
313.15 K, 40000 kPa, x2 = 0.3966	864.1	–
313.15 K, 40000 kPa, x2 = 0.5289	856.5	–
313.15 K, 40000 kPa, x2 = 0.6367	849.7	–
313.15 K, 40000 kPa, x2 = 0.7249	843.7	–
313.15 K, 40000 kPa, x2 = 0.7977	838.4	–
313.15 K, 40000 kPa, x2 = 0.9131	829.4	–
313.15 K, 50000 kPa, x2 = 0	889.9	–
313.15 K, 50000 kPa, x2 = 0.1005	885	–
313.15 K, 50000 kPa, x2 = 0.2261	878.7	–
313.15 K, 50000 kPa, x2 = 0.2999	875	–
313.15 K, 50000 kPa, x2 = 0.3966	869.7	–
313.15 K, 50000 kPa, x2 = 0.5289	862.1	–
313.15 K, 50000 kPa, x2 = 0.6367	855.3	–
313.15 K, 50000 kPa, x2 = 0.7249	849.4	–
313.15 K, 50000 kPa, x2 = 0.7977	844	–
313.15 K, 50000 kPa, x2 = 0.9131	835	–
313.15 K, 60000 kPa, x2 = 0	895	–
313.15 K, 60000 kPa, x2 = 0.1005	890.2	–
313.15 K, 60000 kPa, x2 = 0.2261	883.9	–
313.15 K, 60000 kPa, x2 = 0.2999	880.2	–
313.15 K, 60000 kPa, x2 = 0.3966	875	–
313.15 K, 60000 kPa, x2 = 0.5289	867.4	–
313.15 K, 60000 kPa, x2 = 0.6367	860.6	–
313.15 K, 60000 kPa, x2 = 0.7249	854.7	–
313.15 K, 60000 kPa, x2 = 0.7977	849.3	–
313.15 K, 60000 kPa, x2 = 0.9131	840.3	–
313.15 K, 70000 kPa, x2 = 0	899.9	–
313.15 K, 70000 kPa, x2 = 0.1005	895.2	–
313.15 K, 70000 kPa, x2 = 0.2261	888.9	–
313.15 K, 70000 kPa, x2 = 0.2999	885.2	–
313.15 K, 70000 kPa, x2 = 0.3966	880	–
313.15 K, 70000 kPa, x2 = 0.5289	872.5	–
313.15 K, 70000 kPa, x2 = 0.6367	865.6	–
313.15 K, 70000 kPa, x2 = 0.7249	859.8	–
313.15 K, 70000 kPa, x2 = 0.7977	854.4	–
313.15 K, 70000 kPa, x2 = 0.9131	845.4	–
313.15 K, 80000 kPa, x2 = 0	904.6	–
313.15 K, 80000 kPa, x2 = 0.1005	899.9	–
313.15 K, 80000 kPa, x2 = 0.2261	893.7	–
313.15 K, 80000 kPa, x2 = 0.2999	890.1	–
313.15 K, 80000 kPa, x2 = 0.3966	884.8	–
313.15 K, 80000 kPa, x2 = 0.5289	877.3	–
313.15 K, 80000 kPa, x2 = 0.6367	870.5	–
313.15 K, 80000 kPa, x2 = 0.7249	864.6	–
313.15 K, 80000 kPa, x2 = 0.7977	859.3	–
313.15 K, 80000 kPa, x2 = 0.9131	850.3	–
313.15 K, 90000 kPa, x2 = 0	909	–
313.15 K, 90000 kPa, x2 = 0.1005	904.4	–
313.15 K, 90000 kPa, x2 = 0.2261	898.1	–
313.15 K, 90000 kPa, x2 = 0.2999	894.5	–
313.15 K, 90000 kPa, x2 = 0.3966	889.2	–
313.15 K, 90000 kPa, x2 = 0.5289	881.9	–
313.15 K, 90000 kPa, x2 = 0.6367	875.1	–
313.15 K, 90000 kPa, x2 = 0.7249	869.1	–
313.15 K, 90000 kPa, x2 = 0.7977	863.8	–
313.15 K, 90000 kPa, x2 = 0.9131	854.8	–
313.15 K, 100000 kPa, x2 = 0	913.3	–
313.15 K, 100000 kPa, x2 = 0.1005	908.7	–
313.15 K, 100000 kPa, x2 = 0.2261	902.5	–
313.15 K, 100000 kPa, x2 = 0.2999	898.8	–
313.15 K, 100000 kPa, x2 = 0.3966	893.6	–
313.15 K, 100000 kPa, x2 = 0.5289	886.2	–
313.15 K, 100000 kPa, x2 = 0.6367	879.4	–
313.15 K, 100000 kPa, x2 = 0.7249	873.5	–
313.15 K, 100000 kPa, x2 = 0.7977	868.2	–
313.15 K, 100000 kPa, x2 = 0.9131	859.2	–
313.15 K, 120000 kPa, x2 = 0	921.4	–
313.15 K, 120000 kPa, x2 = 0.1005	916.9	–
313.15 K, 120000 kPa, x2 = 0.2261	910.7	–
313.15 K, 120000 kPa, x2 = 0.2999	907.1	–
313.15 K, 120000 kPa, x2 = 0.3966	901.9	–
313.15 K, 120000 kPa, x2 = 0.5289	894.5	–
313.15 K, 120000 kPa, x2 = 0.6367	887.7	–
313.15 K, 120000 kPa, x2 = 0.7249	881.8	–
313.15 K, 120000 kPa, x2 = 0.7977	876.5	–
313.15 K, 120000 kPa, x2 = 0.9131	867.5	–
313.15 K, 140000 kPa, x2 = 0	928.9	–
313.15 K, 140000 kPa, x2 = 0.1005	924.3	–
313.15 K, 140000 kPa, x2 = 0.2261	918.7	–
313.15 K, 140000 kPa, x2 = 0.2999	914.5	–
313.15 K, 140000 kPa, x2 = 0.3966	909.6	–
313.15 K, 140000 kPa, x2 = 0.5289	902.2	–
313.15 K, 140000 kPa, x2 = 0.6367	895.5	–
313.15 K, 140000 kPa, x2 = 0.7249	889.6	–
313.15 K, 140000 kPa, x2 = 0.7977	884.4	–
313.15 K, 140000 kPa, x2 = 0.9131	875.3	–
323.15 K, 100 kPa, x2 = 0	–	0.62
323.15 K, 100 kPa, x2 = 0.1002	–	0.615
323.15 K, 100 kPa, x2 = 0.2327	–	0.631
323.15 K, 100 kPa, x2 = 0.3	–	0.653
323.15 K, 100 kPa, x2 = 0.3969	–	0.683
323.15 K, 100 kPa, x2 = 0.53	–	0.754
323.15 K, 100 kPa, x2 = 0.637	–	0.835
